The results in this text go back to patent publication US20150166476A1, “METHODS FOR TREATING NEURODEGENERATIVE DISEASES ASSOCIATED WITH AGGREGATION OF AMYLOID-BETA” (priority 2013, published 2015).

“Also recorded” adds a separate entry of the source.

Assay [1] addresses T1, Aβ1-40 (Homo sapiens, UniProt P05067).
T1 construct: Aβ1-40 peptide was synthesized in a solid-phase synthesizer; made in house; host or cells: chemical solid-phase peptide synthesis (no expression host)
Put plainly: Free radical assay (DCFH-DA), cell free. As to conditions: 25 μM Aβ1-40, versus Aβ1-40 alone (FIG. 4). The assay is classed as biochemical. The procedure:
The level of free radicals (H2O2) induced by Aβ1-40 peptide in cell free conditions was analyzed using the dichlorofluorescein diacetate (DCFH-DA) assay. DCF-DA was deacetylated with 50% (v/v) 0.05 M NaOH for 30 min and neutralized (pH 7.5) to a final concentration of 200 μM as a stock solution. This stock solution was kept on ice in the dark until future use. The reactions were carried out in a 96-well plate (200 μL/well) containing 25 μM of Aβ1-40 diluted from the stock solution, 20 μM deacetylated DCF, 5 μM horseradish peroxidase, in Dulbecco's phosphate-buffered saline, pH 7.5. To determine the inhibitory effects of the compound of formula (I) on free radical formation, various concentrations of the compound of formula (I) were added and incubated at 37° C. Fluoresence readings were recorded on a microplate reader (FlexSTation 3, MD) with the excitation wavelength of 485 nm and the emission wavelength of 530 nm. The fluorescence intensity of DCF (H2O2 level) was measured every 6 hr and from 0 to 72 hr.

Assay [2] addresses T1, Aβ1-40. The assay can be described thus: Peptide aggregation assay (Thioflavin-T fluorescence). The assay is classed as biochemical. As to conditions: 25 μM Aβ1-40, 100 ng/mL compound, 37° C., day 5 (FIG. 1). The procedure: Thioflavin-T (ThT) was used to monitor the aggregation state of Aβ1-40. 25 μM of Aβ1-40 was freshly diluted from the peptide stock solution in phosphate buffer (pH 7.4), for peptide aggregation assay. All samples containing a peptide concentration of 25 μM in the absence or presence of 100 ng/mL the compound of formula (I) and 3 μM ThT were incubated at 37° C. Samples containing either Aβ peptide only (control), or Aβ with the compound of formula (I), taking daily from day 0 to day 7, were used to measure the ThT sensitivity. The fluorescence measurement was performed on a microplate reader (FlexSTation 3, MD), with excitation and emission wavelength respectively set at 440 nm and 485 nm.
In this example, the effects of the compound of formula (I) on the aggregation of Aβ1-40 were investigated using the Th-T fluorescence assay described above in the Material and Methods section. Results are depicted in FIG. 1.

Another assay deals with SH-SY5Y cells. Put plainly: Cell viability assay (WST-1), Aβ1-40 induced cell death. The format is cell-based, Human. As to conditions: for effect on Aβ1-40 induced cell death (cell viability): 25 μM Aβ1-40, 24 hr, compound at concentration below 100 ng/mL (FIG. 3). The procedure: Human […] SH-SY5Y cells were cultured in minimum essential medium supplemented with 10% (v/v) heat-inactivated fetal bovine serum, 50% (v/v) F-12 nutrient mixture, and 1% (v/v) antibiotic mixture comprised of penicillin and streptomycin. Cells were kept at 37° C. in a humidified atmosphere of 5% CO2. SH-SY5Y cells were plated at a density of 1×10^5 viable cells per well in 96-well plates for future analysis.
The cell viability was determined by the WST-1 assay. […] of Aβ1-40 peptide stock solution were prepared by dissolving 1 mg Aβ1-40 in 1 mL trifluoroethanol and centrifuging to remove any insoluble particles. The peptide solution was then dried under nitrogen gas and re-dissolved in dimethyl sulfoxide, and incubated at 4° C. for 12 hr to provide the final peptide stock solution. For the viability assay, cells (1×10^5 cells/well in a 96-well microtiter plate) were treated with either 25 μM Aβ peptides only (as a positive control), or with the combination of 25 μM Aβ peptides and the compound of formula (I), in a concentration ranged from 1 to 1,000 ng/mL. The reaction was performed in a total volume of 200 μL per well for 24 hr at 37° C. in a humidified atmosphere containing 5% CO2 before cell viability was assayed. The WST-1 solution (10 μL) was added to each well, and the wells were incubated for another 4-5 hr at room temperature. The optical density was measured at 405 nm using a microplate reader.
In this example, the effects of compounds of formula (I) on Aβ1-40 induced cell toxicity were investigated by cell viability assay.
On the technique in general: Tetrazolium dyes change colour on reduction, which living cells bring about.

The target of assay [3] is T1, Aβ1-40. Put plainly: FT-IR spectroscopy of the secondary structure of Aβ1-40. The assay is classed as biochemical. As to conditions: day 1 and day 5 (FIG. 2). The method, then: The secondary structure of Aβ1-40 with or without the compound of formula (I) was investigated using FT-IR spectrometer (Jasco, FT-IR/4100) equipped with an attenuated reflection accessory to determine the conformation of Aβ1-40 during the aggregative process. 100 μL of 0.1 mM Aβ solution was coated on ZnSe crystals and dried overnight in a desiccators at room temperature. The spectra were recorded at 1,500 to 1,800 cm^−1 with a 1 cm^−1 interval. The peak was identified from the first derivation of the IR spectrum in the amide I region, and the secondary structure was analyzed using Original 6.0 software.
It is known that during the aggregation process, the conformation of Aβ1-40 is converted to either […]. […] Results are depicted in FIG. 2.

T1 sequence (P05067 672-711 limits assumed): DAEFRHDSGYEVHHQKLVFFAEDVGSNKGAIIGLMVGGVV

Turning to `CC1=C(SCCO)C(=O)c2ccccc2C1=O` [VK3-1], on Aβ1-40 [1], the “Aβ1-40 induced free radical levels (DCF fluorescence intensity)” value (“Aβ1-40 induced free radical levels” below) is listed as “resulted even more free radicals as compared with the control”. In addition, on Aβ1-40 [2], the “effect on the aggregation of Aβ1-40 (Th-T fluorescence intensity)” value (from here on “effect on the aggregation”) is given as “capable of enhancing the aggregation of Aβ1-40”. In addition, in the assay on SH-SY5Y cells, the “effect on Aβ1-40 induced cell death (cell viability)” value (shortened to “effect on Aβ1-40 induced cell death”) is recorded as “smaller effects”. In addition, the “conformation of Aβ1-40 (FT-IR, 1650 cm^−1 random coil vs 1625 cm^−1 β-sheet)” value on Aβ1-40 [3] is recorded as “converted to β-sheet structure”.
The matching figures for `CC1=C(SCCCO)C(=O)c2ccccc2C1=O` [VK3-2]: “resulted even more free radicals as compared with the control”, “capable of preventing Aβ1-40 from aggregation”, “smaller effects” and “remained mostly in random coil conformation”.
As for `CC1=C(SCCCCO)C(=O)c2ccccc2C1=O` [VK3-3], at Aβ1-40 [1], the “Aβ1-40 induced free radical levels” value is given as “resulted even more free radicals as compared with the control”. Moreover, the “effect on Aβ1-40 induced cell death” value in the assay on SH-SY5Y cells was “smaller effects”. Further, the “conformation of Aβ1-40 (FT-IR, 1650 cm^−1 random coil vs 1625 cm^−1 β-sheet)” value on Aβ1-40 [3] was “converted to β-sheet structure”.
For `CC1=C(SCCCCCCO)C(=O)c2ccccc2C1=O` [VK3-4], the “effect on the aggregation” value at Aβ1-40 [2] is “capable of enhancing the aggregation of Aβ1-40”. For the same compound, the “effect on Aβ1-40 induced cell death” value in the assay with SH-SY5Y cells was “smaller effects”.
As for `CC1=C(SCCCCCCCCCCCO)C(=O)c2ccccc2C1=O` [VK3-5], the “Aβ1-40 induced free radical levels” value on Aβ1-40 [1] was “effectively inhibited”. Besides, the “effect on the aggregation” value at Aβ1-40 [2] is “capable of enhancing the aggregation of Aβ1-40”. The “effect on Aβ1-40 induced cell death” value in the assay with SH-SY5Y cells was “smaller effects”. Moreover, the “conformation of Aβ1-40 (FT-IR, 1650 cm^−1 random coil vs 1625 cm^−1 β-sheet)” value at Aβ1-40 [3] is “converted to β-sheet structure”.
On to `CC1=C(SCCC(=O)O)C(=O)c2ccccc2C1=O` [VK3-6], for which the “effect on the aggregation” value at Aβ1-40 [2] is recorded as “capable of preventing Aβ1-40 from aggregation; also recorded: most potent”. Further, the “conformation of Aβ1-40 (FT-IR, 1650 cm^−1 random coil vs 1625 cm^−1 β-sheet)” value at Aβ1-40 [3] was “remained mostly in random coil conformation”.
For `CC1=C(SCC(C)O)C(=O)c2ccccc2C1=O` (centres unmarked) [VK3-8], on Aβ1-40 [1], the “Aβ1-40 induced free radical levels” value was “resulted even more free radicals as compared with the control”. Moreover, the “effect on the aggregation” value at Aβ1-40 [2] is recorded as “capable of preventing Aβ1-40 from aggregation”. Moreover, the “effect on Aβ1-40 induced cell death” value with SH-SY5Y cells is reported as “smaller effects”. For the same compound, the “conformation of Aβ1-40 (FT-IR, 1650 cm^−1 random coil vs 1625 cm^−1 β-sheet)” value on Aβ1-40 [3] is given as “remained mostly in random coil conformation”.
`CC1=C(SCC(O)CO)C(=O)c2ccccc2C1=O` (centres unmarked) [VK3-9]: at Aβ1-40 [1], the “Aβ1-40 induced free radical levels” value is “effectively inhibited”. In addition, at Aβ1-40 [2], the “effect on the aggregation” value is recorded as “capable of preventing Aβ1-40 from aggregation; also recorded: most potent”. The cell survival rate turned out to be 50% with SH-SY5Y cells (25 μM Aβ1-40, 1 ng/mL compound); 88% with SH-SY5Y cells (25 μM Aβ1-40, 100 ng/mL compound); 92% in the assay on SH-SY5Y cells (25 μM Aβ1-40, 1,000 ng/mL compound). The “effect on Aβ1-40 induced cell death” value in the assay on SH-SY5Y cells was “exhibited the ability of preventing Aβ1-40 induced cell death”. Moreover, the “conformation of Aβ1-40 (FT-IR, 1650 cm^−1 random coil vs 1625 cm^−1 β-sheet)” value on Aβ1-40 [3] is given as “remained mostly in random coil conformation”.
With `O=C1C=C(SCCO)C(=O)c2ccccc21` [VK3-199], the “Aβ1-40 induced free radical levels” value on Aβ1-40 [1] is reported as “resulted even more free radicals as compared with the control”. Also, at Aβ1-40 [2], the “effect on the aggregation” value is given as “capable of preventing Aβ1-40 from aggregation”. The “effect on Aβ1-40 induced cell death” value with SH-SY5Y cells is “smaller effects”. Moreover, at Aβ1-40 [3], the “conformation of Aβ1-40 (FT-IR, 1650 cm^−1 random coil vs 1625 cm^−1 β-sheet)” value is “remained mostly in random coil conformation”.
On to `CC1=C(O)C(=O)c2ccccc2C1=O` [VK3-221], for which the “effect on the aggregation” value at Aβ1-40 [2] is “capable of preventing Aβ1-40 from aggregation”. The “effect on Aβ1-40 induced cell death” value in the assay with SH-SY5Y cells is on record as “smaller effects”. Further, the “conformation of Aβ1-40 (FT-IR, 1650 cm^−1 random coil vs 1625 cm^−1 β-sheet)” value at Aβ1-40 [3] is listed as “remained mostly in random coil conformation”.
As for `CC1=C(NCCN2CCOCC2)C(=O)c2ccccc2C1=O` [VK3-224], at Aβ1-40 [2], the “effect on the aggregation” value was “capable of preventing Aβ1-40 from aggregation”. The “effect on Aβ1-40 induced cell death” value in the assay with SH-SY5Y cells is on record as “no difference from that of the control”. The “conformation of Aβ1-40 (FT-IR, 1650 cm^−1 random coil vs 1625 cm^−1 β-sheet)” value on Aβ1-40 [3] was “remained mostly in random coil conformation”.
For `O=C1C(SCCO)=C(SCCO)C(=O)c2ccccc21` [VK3-231], the “Aβ1-40 induced free radical levels” value at Aβ1-40 [1] is on record as “resulted even more free radicals as compared with the control”. In addition, in the assay with SH-SY5Y cells, the “effect on Aβ1-40 induced cell death” value is recorded as “smaller effects”.
As to `O=C1C(SCC(O)CO)=C(SCC(O)CO)C(=O)c2ccccc21` (centres unmarked) [VK3-232], in the assay with SH-SY5Y cells, the “effect on Aβ1-40 induced cell death” value is given as “no difference from that of the control”.
Consider `O=C1C(SCCCCCCO)=C(SCCCCCCO)C(=O)c2ccccc21` [VK3-233-2d], for which the “Aβ1-40 induced free radical levels” value at Aβ1-40 [1] is on record as “resulted even more free radicals as compared with the control”. On Aβ1-40 [2], the “effect on the aggregation” value was “capable of enhancing the aggregation of Aβ1-40”. Moreover, the “effect on Aβ1-40 induced cell death” value in the assay with SH-SY5Y cells is listed as “no difference from that of the control”. Also, the “conformation of Aβ1-40 (FT-IR, 1650 cm^−1 random coil vs 1625 cm^−1 β-sheet)” value at Aβ1-40 [3] was “converted to β-sheet structure”.
